Experimental data: patent US20230382925A1, “MODULATORS OF CYSTIC FIBROSIS TRANSMEMBRANE CONDUCTANCE REGULATOR” (VERTEX PHARMACEUTICALS INCORPORATED, priority 2020, published 2023)
“And” between values parts separate entries of the source, which are not always exact repeats. Equal values may be shown once. Read-outs that look alike come from different tables or passages of the source. Blank lines part the entries; values can stand above or below the compound they belong to.

Experiments:
[1] = molecular target: T1, CFTR (Homo sapiens, UniProt P13569); assay: Membrane Potential Dye, Enteroid Assay A; assay type: cell-based; conditions: for EC50: read-out: Ent. A EC50
T1 sequence (P13569 with tags, fused parts or gaps DEL508-508): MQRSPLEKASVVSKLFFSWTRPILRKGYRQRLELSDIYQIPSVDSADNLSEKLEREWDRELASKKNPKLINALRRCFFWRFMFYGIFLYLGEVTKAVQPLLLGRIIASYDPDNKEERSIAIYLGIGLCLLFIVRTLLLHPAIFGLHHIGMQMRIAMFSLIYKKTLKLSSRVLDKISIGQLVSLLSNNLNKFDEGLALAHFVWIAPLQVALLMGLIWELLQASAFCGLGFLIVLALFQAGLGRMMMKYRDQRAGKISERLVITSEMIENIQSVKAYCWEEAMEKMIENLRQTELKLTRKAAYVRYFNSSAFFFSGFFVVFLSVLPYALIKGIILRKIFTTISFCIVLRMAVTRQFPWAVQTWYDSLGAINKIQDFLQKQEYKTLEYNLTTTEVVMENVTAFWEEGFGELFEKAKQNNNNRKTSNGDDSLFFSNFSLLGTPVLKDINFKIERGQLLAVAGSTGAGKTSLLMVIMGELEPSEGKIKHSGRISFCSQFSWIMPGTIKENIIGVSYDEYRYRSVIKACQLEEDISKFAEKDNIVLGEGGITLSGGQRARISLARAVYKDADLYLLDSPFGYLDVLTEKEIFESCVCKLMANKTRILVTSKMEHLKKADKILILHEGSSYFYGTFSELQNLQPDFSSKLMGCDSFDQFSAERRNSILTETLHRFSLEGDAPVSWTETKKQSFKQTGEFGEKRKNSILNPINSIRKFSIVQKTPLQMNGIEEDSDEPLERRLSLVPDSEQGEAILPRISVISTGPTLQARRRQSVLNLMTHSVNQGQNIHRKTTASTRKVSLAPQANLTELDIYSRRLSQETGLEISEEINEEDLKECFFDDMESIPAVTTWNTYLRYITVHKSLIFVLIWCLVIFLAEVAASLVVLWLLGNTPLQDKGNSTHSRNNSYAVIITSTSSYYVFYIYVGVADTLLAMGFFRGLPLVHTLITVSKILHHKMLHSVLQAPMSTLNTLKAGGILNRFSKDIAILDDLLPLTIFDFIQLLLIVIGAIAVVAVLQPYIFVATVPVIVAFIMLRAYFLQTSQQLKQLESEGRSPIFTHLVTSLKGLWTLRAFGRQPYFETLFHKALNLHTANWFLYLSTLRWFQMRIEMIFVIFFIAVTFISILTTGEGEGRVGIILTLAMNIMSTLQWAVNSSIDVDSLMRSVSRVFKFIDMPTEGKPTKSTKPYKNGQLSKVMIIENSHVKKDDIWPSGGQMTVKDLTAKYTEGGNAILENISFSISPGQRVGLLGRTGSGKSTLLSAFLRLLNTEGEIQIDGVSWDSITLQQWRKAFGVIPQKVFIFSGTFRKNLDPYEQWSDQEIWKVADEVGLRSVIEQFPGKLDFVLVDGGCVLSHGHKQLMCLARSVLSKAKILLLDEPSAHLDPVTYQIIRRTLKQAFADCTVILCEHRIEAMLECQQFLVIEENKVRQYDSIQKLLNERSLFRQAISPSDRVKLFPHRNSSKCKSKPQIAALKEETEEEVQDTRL
In short: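 Primary human intestinal enteroid cells exposed to compound for 18–24 hours at 37 °C, then loaded 25 min with methyl oxonol membrane potential dye plus CaCC inhibitors. Chloride transport triggered in chloride-free buffer with 10 μM forskolin, 100 μM IBMX and 300 nM Compound III, fluorescence read 15 min; % Activity relative to a triple-combination corrector/potentiator control.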

[2] = amide bond, 13-membered ring
[3] = molecular target: T1, CFTR; assay: Membrane Potential Dye, Enteroid Assay B; assay type: cell-based
In short: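 Human intestinal enteroid cells exposed to compound 18-24 h at 37 °C, then loaded with methyl oxonol membrane-potential dye plus CaCC blockers. Chloride transport triggered in chloride-free buffer with 10 μM forskolin, 100 μM IBMX, 300 nM Compound III; fluorescence read 15 min, expressed as % of triple-corrector/potentiator combination control.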

[4] = Table 10, read-out: Ent. B EC50

Ent. A Max Activity (%) [1]: +++ (+++ is >60%)
EC50 [1]: < 1000 nM
SMILES: Cc1cccc(C)c1-c1cc2nc(n1)NS(=O)(=O)c1cccc(n1)C(=O)N(C1CC3(CC3)C1)[C@H](CC1(C(F)(F)F)CC1)CO2 [Compound 163, (11R)-6-(2,6-Dimethylphenyl)-2,2-dioxo-12-spiro[2.3]hexan-5-yl-11-[[1-(trifluoromethyl)cyclopropyl]methyl]-9-oxa-2λ^6-thia-3,5,12,18,19-pentazatricyclo[12.3.1.14,8]nonadeca-1(18),4(19),5,7,14,16-hexaen-13-one]
ring closure, isolated yield ([2]; from Cc1cccc(C)c1-c1cc(OC[C@@H](CC2(C(F)(F)F)CC2)NC2CC3(CC3)C2)nc(NS(=O)(=O)c2cccc(C(=O)O)n2)n1, HATU/DIEA, NMP, 99.8 mM, 25.0 °C, 16.0 h): 58%

Ent. A Max Activity (%) [1]: +++ (+++ is >60%)
EC50 [1]: < 1000 nM
Ent. B Max Activity (%) [3]: +++ (+++ is >60%)
EC50 ([3]; read-out: Ent. B EC50): < 1000 nM
SMILES: Cc1cccc(C)c1-c1cc2nc(n1)NS(=O)(=O)c1cccc(c1)C(=O)N(C1CC3(CC3)C1)[C@H](CC1(C(F)(F)F)CC1)CO2 [Compound 198, (11R)-6-(2,6-Dimethylphenyl)-2,2-dioxo-12-spiro[2.3]hexan-5-yl-11-[[1-(trifluoromethyl)cyclopropyl]methyl]-9-oxa-2λ^6-thia-3,5,12,19-tetrazatricyclo[12.3.1.14,8]nonadeca-1(18),4(19),5,7,14,16-hexaen-13-one]
ring closure, isolated yield ([2]; from Cc1cccc(C)c1-c1cc(OC[C@@H](CC2(C(F)(F)F)CC2)NC2CC3(CC3)C2)nc(NS(=O)(=O)c2cccc(C(=O)O)c2)n1, HATU/DIEA, DMF, 49.1 mM, 21.0 h): 60%

Ent. B Max Activity (%) ([3]; Table 10): +++ (+++ is >60%)
EC50 [3, 4]: < 1000 nM
SMILES: Cc1cccc(C)c1-c1cc2nc(n1)NS(=O)(=O)c1cccc(c1)C(=O)N(C1CC3(CC(NC(=O)OC(C)(C)C)C3)C1)[C@H](CC(C)(C)C)CO2 (stereo partly shown) [Compound 199]
ring closure, isolated yield ([2]; from Cc1cccc(C)c1-c1cc(OC[C@@H](CC(C)(C)C)NC2CC3(CC(NC(=O)OC(C)(C)C)C3)C2)nc(NS(=O)(=O)c2cccc(C(=O)O)c2)n1, HATU/DIEA, DMF, 107.7 mM, 24.0 h): 63%
ring closure, isolated yield ([2]; from Cc1cccc(C)c1-c1cc(OC[C@@H](CC(C)(C)C)NC2CC3(CC(NC(=O)OC(C)(C)C)C3)C2)nc(NS(=O)(=O)c2cccc(C(=O)O)c2)n1, HATU/DIEA, DMF, 120.7 mM, 36.0 h): 80%

SMILES: Cc1cccc(C)c1-c1cc2nc(n1)NS(=O)(=O)c1cccc(c1)C(=O)N(C1CC3(CCN(C(=O)OC(C)(C)C)C3)C1)[C@H](CC(C)C)CO2 (stereo partly shown)
ring closure, isolated yield ([2]; from Cc1cccc(C)c1-c1cc(OC[C@@H](CC(C)C)NC2CC3(CCN(C(=O)OC(C)(C)C)C3)C2)nc(NS(=O)(=O)c2cccc(C(=O)O)c2)n1, HATU/DIEA, DMF, 25.0 °C, 3.0 h, 2 steps): 67%

SMILES: Cc1cccc(C)c1-c1cc2nc(n1)NS(=O)(=O)c1cccc(c1)C(=O)N(C1CC3(C1)CC1(C3)OCCO1)[C@H](CC(C)(C)C)CO2
ring closure, isolated yield ([2]; from Cc1cccc(C)c1-c1cc(OC[C@@H](CC(C)(C)C)NC2CC3(C2)CC2(C3)OCCO2)nc(NS(=O)(=O)c2cccc(C(=O)O)c2)n1, COMU/DIEA, DMF, 71.6 mM, 16.0 h): 76%

SMILES: Cc1cccc(C)c1-c1cc2nc(n1)NS(=O)(=O)c1cccc(c1)C(=O)N(C1CC(OCc3ccccc3)C1)[C@H](CC(C)(C)C)CO2 (stereo partly shown)
ring closure, isolated yield ([2]; from Cc1cccc(C)c1-c1cc(OC[C@@H](CC(C)(C)C)NC2CC(OCc3ccccc3)C2)nc(NS(=O)(=O)c2cccc(C(=O)O)c2)n1, COMU/DIEA, DMF, 65.1 mM, 25.0 °C, 16.0 h): 82%

Ent. A Max Activity (%) [1]: +++ (+++ is >60%)
EC50 [1]: < 1000 nM
Ent. B Max Activity (%) [3]: +++ (+++ is >60%)
EC50 ([3]; read-out: Ent. B EC50): < 1000 nM
SMILES: Cc1cccc(C)c1-c1cc2nc(n1)NS(=O)(=O)c1cccc(c1)C(=O)N(C1CC3(CCN(C(=O)OC(C)(C)C)CC3)C1)[C@H](CC(C)C)CO2 [Compound 13, tert-Butyl 2-[(11R)-6-(2,6-dimethylphenyl)-11-isobutyl-2,2,13-trioxo-9-oxa-2λ^6-thia-3,5,12,19-tetrazatricyclo[12.3.1.14,8]nonadeca-1(18),4(19),5,7,14,16-hexaen-12-yl]-7-azaspiro[3.5]nonane-7-carboxylate]
ring closure, isolated yield ([2]; from Cc1cccc(C)c1-c1cc(OC[C@@H](CC(C)C)NC2CC3(CCN(C(=O)OC(C)(C)C)CC3)C2)nc(NS(=O)(=O)c2cccc(C(=O)O)c2)n1, HATU/DIEA, DMF, 68.6 mM, 25.0 °C, 13.0 h): 78%

SMILES: CC(C)C[C@@H]1COc2cc(Cl)nc(n2)NS(=O)(=O)c2cccc(c2)C(=O)N1C1CC2(CC2)C1
ring closure, isolated yield ([2]; from CC(C)C[C@H](COc1cc(Cl)nc(NS(=O)(=O)c2cccc(C(=O)O)c2)n1)NC1CC2(CC2)C1, HATU/DIEA, DMF, 16.5 mM, 17.0 h): 58%

Ent. B Max Activity (%) [3]: +++ (+++ is >60%)
EC50 ([3]; read-out: Ent. B EC50): < 1000 nM
SMILES: Cc1cccc(C)c1-c1cc2nc(n1)NS(=O)(=O)c1cccc(c1)C(=O)N(C1CC3(CCN(C(=O)OC(C)(C)C)CC3)C1)[C@H](CC1(C(F)(F)F)CC1)CO2 [Compound 127, tert-butyl 2-[(11R)-6-(2,6-dimethylphenyl)-2,2,13-trioxo-11-[[1-(trifluoromethyl)cyclopropyl]methyl]-9-oxa-2λ^6-thia-3,5,12,19-tetrazatricyclo[12.3.1.14,8]nonadeca-1(18),4(19),5,7,14,16-hexaen-12-yl]-7-azaspiro[3.5]nonane-7-carboxylate]
ring closure, isolated yield ([2]; from Cc1cccc(C)c1-c1cc(OC[C@@H](CC2(C(F)(F)F)CC2)NC2CC3(CCN(C(=O)OC(C)(C)C)CC3)C2)nc(NS(=O)(=O)c2cccc(C(=O)O)c2)n1, HATU/DIEA, DMF, 65.3 mM, 16.0 h): 59%

Ent. B Max Activity (%) ([3]; Table 10): +++ (+++ is >60%)
EC50 [3, 4]: 1000 to 3000 nM
SMILES: Cc1cccc(C)c1-c1cc2nc(n1)NS(=O)(=O)c1cccc(c1)C(=O)N(C1CC3(CC3)C1)[C@H](CC(C)(C)O)CO2 [Compound 51, (11R)-6-(2,6-Dimethylphenyl)-11-(2-hydroxy-2-methyl-propyl)-2,2-dioxo-12-spiro[2.3]hexan-5-yl-9-oxa-2λ^6-thia-3,5,12,19-tetrazatricyclo[12.3.1.14,8]nonadeca-1(18),4(19),5,7,14,16-hexaen-13-one]
ring closure, isolated yield ([2]; from Cc1cccc(C)c1-c1cc(OC[C@@H](CC(C)(C)O)NC2CC3(CC3)C2)nc(NS(=O)(=O)c2cccc(C(=O)O)c2)n1, T3P/Et3N, DMF/EtOAc, 26.4 mM, 4.0 h): 17%

SMILES: CC(C)C[C@@H]1COc2cc(Cl)nc(n2)NS(=O)(=O)c2cccc(c2)C(=O)N1C1CC2(CCN(C(=O)OC(C)(C)C)CC2)C1
ring closure, isolated yield ([2]; from CC(C)C[C@H](COc1cc(Cl)nc(NS(=O)(=O)c2cccc(C(=O)O)c2)n1)NC1CC2(CCN(C(=O)OC(C)(C)C)CC2)C1, HATU/TEA, DMF, 154.9 mM, 25.0 °C, 16.0 h): 41%

Ent. B Max Activity (%) ([3]; Table 9): +++ (+++ is >60%)
EC50 ([3]; Table 9, read-out: Ent. B EC50): < 1000 nM
SMILES: Cc1cccc(C)c1-c1cc2nc(n1)NS(=O)(=O)c1cccc(c1)C(=O)N(C1CC3(CCN(C(=O)OC(C)(C)C)CC3)C1)[C@H](CC(C)(C)C(F)(F)F)CO2 [Compound 187, tert-Butyl 2-[(11R)-6-(2,6-dimethylphenyl)-2,2,13-trioxo-11-(3,3,3-trifluoro-2,2-dimethylpropyl)-9-oxa-2λ^6-thia-3,5,12,19-tetraazatricyclo[12.3.1.14,8]nonadeca-1(17),4(19),5,7,14(18),15-hexaen-12-yl]-7-azaspiro[3.5]nonane-7-carboxylate]
ring closure, isolated yield ([2]; from Cc1cccc(C)c1-c1cc(OC[C@@H](CC(C)(C)C(F)(F)F)NC2CC3(CCN(C(=O)OC(C)(C)C)CC3)C2)nc(NS(=O)(=O)c2cccc(C(=O)O)c2)n1, HATU/DIEA, DMF, 37.7 mM, 17.0 h): 15%

SMILES: Cc1cccc(C)c1-c1cc2nc(n1)NS(=O)(=O)c1cccc(c1)C(=O)N(C1CC3(CC(NC(=O)OC(C)(C)C)C3)C1)[C@H](CC1(C(F)(F)F)CC1)CO2 (stereo partly shown)
ring closure, isolated yield ([2]; from Cc1cccc(C)c1-c1cc(OC[C@@H](CC2(C(F)(F)F)CC2)NC2CC3(CC(NC(=O)OC(C)(C)C)C3)C2)nc(NS(=O)(=O)c2cccc(C(=O)O)c2)n1, HATU/DIEA, DMF, 99.2 mM, 18.0 h): 74%

SMILES: Cc1cccc(C)c1-c1cc2nc(n1)NS(=O)(=O)c1cccc(c1)C(=O)N(C1CC3(COC(=O)N3)C1)[C@H](CC(C)(C)C)CO2 (stereo partly shown)
ring closure, isolated yield ([2]; from Cc1cccc(C)c1-c1cc(OC[C@@H](CC(C)(C)C)NC2CC3(COC(=O)N3)C2)nc(NS(=O)(=O)c2cccc(C(=O)O)c2)n1, COMU/DIEA, DMF, 13.0 mM, 25.0 °C, 3.0 h, 2 steps): 8% and 3%

SMILES: Cc1cccc(C)c1-c1cc2nc(n1)NS(=O)(=O)c1cccc(c1)C(=O)N(C1CC(C(=O)OC(C)C)(C(=O)OC(C)C)C1)[C@H](CC(C)(C)C)CO2
ring closure, isolated yield ([2]; from Cc1cccc(C)c1-c1cc(OC[C@@H](CC(C)(C)C)NC2CC(C(=O)OC(C)C)(C(=O)OC(C)C)C2)nc(NS(=O)(=O)c2cccc(C(=O)O)c2)n1, COMU/DIEA, DMF, 18.6 mM, 25.0 °C, 21.0 h): 20%
